We go through 24 compounds from ChEMBL document CHEMBL3621197, “Design, synthesis, and preliminary bioactivity studies of substituted purine hydroxamic acid derivatives as novel histone deacetylase (HDAC) inhibitors” (Medchemcomm, 2014).

Test [1] addresses T1, Histone deacetylase (HDAC1 and HDAC2) (Homo sapiens, UniProt Q13547+Q92769). The settings on record: HeLa, at 5 µM.
Description: Inhibition of HDAC1/HDAC2 isolated from human HeLa cells at 5 umol/L incubated for 30 mins by Color de Lys assay
The test system of a further test is MDA-MB-231. Description: cells. Type of test: functional, cell-based. The settings on record: Homo sapiens, MDA-MB-231, 48 h.
A further test has as its system MCF7. The test can be described thus: cells. Type of test: functional, cell-based. The settings on record: Homo sapiens, MCF7, 48 h.
Test [2] in a line: cells. In kind it is functional, cell-based. The settings on record: Homo sapiens, KG-1, 48 h.
Description: Cytotoxicity against human KG1 cells assessed as inhibition of cell proliferation after 48 hrs by MTT assay
Test [3] has as its target T1, Histone deacetylase (HDAC1 and HDAC2). Description: Inhibition of HDAC1/HDAC2 isolated from human HeLa cells incubated for 30 mins by Color de Lys assay. Type of test: cell-based.
Another test relates to U-937. Description: cells. Type of test: functional, cell-based. The settings on record: Homo sapiens, U-937, 48 h.
A further test has as its system PC-3. The test can be described thus: cells. Type of test: functional, cell-based. The settings on record: Homo sapiens, PC-3, 48 h.
Test [4] concerns the target T2, Protein deacetylase HDAC6 (Homo sapiens, UniProt Q9UBN7).
T2 sequence (Q9UBN7 whole entry): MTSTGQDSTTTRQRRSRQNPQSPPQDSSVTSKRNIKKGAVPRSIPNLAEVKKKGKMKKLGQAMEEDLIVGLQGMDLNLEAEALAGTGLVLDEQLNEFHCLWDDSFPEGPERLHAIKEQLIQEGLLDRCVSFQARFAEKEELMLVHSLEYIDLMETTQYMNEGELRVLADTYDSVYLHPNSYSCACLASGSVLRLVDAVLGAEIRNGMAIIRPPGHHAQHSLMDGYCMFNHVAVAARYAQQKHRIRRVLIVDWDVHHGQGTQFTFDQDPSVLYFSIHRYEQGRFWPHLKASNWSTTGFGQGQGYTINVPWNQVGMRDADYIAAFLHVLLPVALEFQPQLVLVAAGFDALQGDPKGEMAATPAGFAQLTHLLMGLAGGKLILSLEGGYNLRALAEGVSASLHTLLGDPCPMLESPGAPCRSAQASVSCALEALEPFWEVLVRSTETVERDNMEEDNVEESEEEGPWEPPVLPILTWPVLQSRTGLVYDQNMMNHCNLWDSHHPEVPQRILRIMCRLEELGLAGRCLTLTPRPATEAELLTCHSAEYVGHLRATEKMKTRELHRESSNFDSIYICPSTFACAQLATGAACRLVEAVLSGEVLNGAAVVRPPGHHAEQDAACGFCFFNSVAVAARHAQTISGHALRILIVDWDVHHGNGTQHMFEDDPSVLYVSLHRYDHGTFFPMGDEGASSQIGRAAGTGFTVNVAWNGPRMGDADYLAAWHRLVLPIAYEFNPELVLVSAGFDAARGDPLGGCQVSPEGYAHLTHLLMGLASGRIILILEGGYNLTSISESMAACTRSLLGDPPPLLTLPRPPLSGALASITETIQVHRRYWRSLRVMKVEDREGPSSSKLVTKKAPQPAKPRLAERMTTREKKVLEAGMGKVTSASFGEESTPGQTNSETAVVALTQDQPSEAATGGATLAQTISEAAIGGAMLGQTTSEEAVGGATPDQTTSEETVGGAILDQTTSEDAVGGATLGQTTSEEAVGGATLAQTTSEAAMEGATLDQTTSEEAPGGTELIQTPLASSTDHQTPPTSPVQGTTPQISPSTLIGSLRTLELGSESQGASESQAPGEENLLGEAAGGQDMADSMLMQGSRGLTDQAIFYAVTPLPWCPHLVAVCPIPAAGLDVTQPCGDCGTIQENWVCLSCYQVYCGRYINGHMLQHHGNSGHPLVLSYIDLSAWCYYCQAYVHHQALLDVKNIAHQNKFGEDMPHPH
Description: Inhibition of recombinant full length human HDAC6 expressed in Baculovirus infected insect Sf9 cells incubated for 30 mins measured by fluorescence assay.

The target of another test is T3, Histone deacetylase 8 (Homo sapiens, UniProt Q9BY41).
T3 sequence (Q9BY41 whole entry): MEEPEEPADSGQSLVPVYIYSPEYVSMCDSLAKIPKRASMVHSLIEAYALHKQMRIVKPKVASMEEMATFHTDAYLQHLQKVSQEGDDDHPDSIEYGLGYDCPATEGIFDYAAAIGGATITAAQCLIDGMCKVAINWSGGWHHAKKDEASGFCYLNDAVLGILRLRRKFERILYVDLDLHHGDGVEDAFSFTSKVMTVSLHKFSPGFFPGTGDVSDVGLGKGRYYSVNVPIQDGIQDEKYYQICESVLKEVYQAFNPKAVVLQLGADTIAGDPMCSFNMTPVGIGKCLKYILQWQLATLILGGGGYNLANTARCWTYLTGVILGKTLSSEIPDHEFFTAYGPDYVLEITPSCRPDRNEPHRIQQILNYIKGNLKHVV
The test can be described thus: Inhibition of recombinant full length human HDAC8 expressed in Baculovirus infected insect Sf9 cells preincubated for 30 mins followed by substrate addition measured after 15 to 45 mins by luminescence assay.

The next test concerns A549. Description: cells. Type of test: functional, cell-based. The settings on record: Homo sapiens, A549, 48 h.
Test [5] in a line: cells. Type of test: functional, cell-based, ES2. The settings on record: Homo sapiens, ES-2, 48 h.
Description: Cytotoxicity against human ES2 cells assessed as inhibition of cell proliferation after 48 hrs by MTT assay
In another test the test system is HeLa. The test can be described thus: cells. The settings on record: Homo sapiens, 48 h. Type of test: functional, cell-based.
A further test concerns the target Histone deacetylase 1 (Homo sapiens, UniProt Q13547). The test can be described thus: Inhibition of recombinant full length human HDAC1 (1 to 482 amino acids) expressed in Baculovirus infected insect Sf9 cells incubated for 30 mins measured by fluorescence assay.

Chain of Histone deacetylase 1 (Q13547 whole entry, the tested form may be a part): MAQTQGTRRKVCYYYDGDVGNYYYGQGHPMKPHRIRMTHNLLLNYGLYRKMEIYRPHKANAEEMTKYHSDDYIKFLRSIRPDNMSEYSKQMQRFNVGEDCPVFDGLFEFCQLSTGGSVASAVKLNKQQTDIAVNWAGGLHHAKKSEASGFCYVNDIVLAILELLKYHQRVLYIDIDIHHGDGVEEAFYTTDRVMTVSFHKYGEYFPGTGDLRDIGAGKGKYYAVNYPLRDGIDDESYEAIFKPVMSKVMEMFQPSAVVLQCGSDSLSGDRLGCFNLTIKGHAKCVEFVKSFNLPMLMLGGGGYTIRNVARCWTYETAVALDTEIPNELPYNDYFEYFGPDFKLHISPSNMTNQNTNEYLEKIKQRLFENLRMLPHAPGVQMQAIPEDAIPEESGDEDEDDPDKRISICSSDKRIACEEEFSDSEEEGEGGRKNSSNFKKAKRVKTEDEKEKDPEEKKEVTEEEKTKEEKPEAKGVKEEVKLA
T1 sequence (Q13547 whole entry, looked up): as the sequence (Q13547 whole entry, the tested form may be a part) above
T1 sequence (Q92769 whole entry, looked up): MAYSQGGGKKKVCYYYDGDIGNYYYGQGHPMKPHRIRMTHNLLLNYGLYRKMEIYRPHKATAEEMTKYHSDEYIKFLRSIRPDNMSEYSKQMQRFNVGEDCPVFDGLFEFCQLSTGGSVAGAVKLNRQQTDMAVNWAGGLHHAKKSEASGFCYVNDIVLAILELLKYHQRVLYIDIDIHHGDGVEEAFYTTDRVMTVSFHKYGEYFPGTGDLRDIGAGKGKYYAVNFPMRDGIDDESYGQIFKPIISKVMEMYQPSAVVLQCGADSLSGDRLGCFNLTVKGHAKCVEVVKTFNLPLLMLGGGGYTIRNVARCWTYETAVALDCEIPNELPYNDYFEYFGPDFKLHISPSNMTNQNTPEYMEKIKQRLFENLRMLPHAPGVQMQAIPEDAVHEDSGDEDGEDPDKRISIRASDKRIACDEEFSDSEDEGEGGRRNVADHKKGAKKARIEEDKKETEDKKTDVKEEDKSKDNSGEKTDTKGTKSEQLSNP
Description for A549: Cytotoxicity against human A549 cells assessed as inhibition of cell proliferation after 48 hrs by MTT assay
Description for HeLa: Cytotoxicity against human HeLa cells assessed as inhibition of cell proliferation after 48 hrs by MTT assay
Description for MCF7: Cytotoxicity against human MCF7 cells assessed as inhibition of cell proliferation after 48 hrs by MTT assay
Description for MDA-MB-231: Cytotoxicity against human MDA-MB-231 cells assessed as inhibition of cell proliferation after 48 hrs by MTT assay
Description for PC-3: Cytotoxicity against human PC3 cells assessed as inhibition of cell proliferation after 48 hrs by MTT assay
Description for U-937: Cytotoxicity against human U937 cells assessed as inhibition of cell proliferation after 48 hrs by MTT assay

With `O=C(CCCNC(=O)Cn1cnc2c(NCc3ccccc3)ncnc21)NO`, the inhibition in test [1] was determined as 11%.
As for `CNc1ncnc2c1ncn2CC(=O)NCCCC(=O)NO`, in test [1], the inhibition turned out to be 6%.
Regarding `O=C(CCCCNC(=O)Cn1cnc2c(Nc3ccccc3)ncnc21)NO`, the IC50 in the test on MDA-MB-231 was > 50 µM; with MCF7 it was > 50 µM; in “cells [2]”, > 50 µM; in [3] it was 2.51 µM. The inhibition in test [1] came out at 59%.
Take `O=C(CCNC(=O)Cn1cnc2c(N3CCOCC3)ncnc21)NO`: in test [1], the inhibition was determined as 3%.
Take `O=C(CCCCCCNC(=O)Cn1cnc2c(Nc3ccccc3)ncnc21)NO`: the IC50 was 8.91 µM with MDA-MB-231, > 50 µM with MCF7, > 50 µM in the test “cells [2]” and 2.94 µM in test [3]. Moreover, in [1], the inhibition was determined as 49%.
With `O=C(CCCCCNC(=O)Cn1cnc2c(NCc3ccccc3)ncnc21)NO`, the IC50 with MDA-MB-231 is 34.2 µM; in the test on MCF7, > 50 µM; in the test “cells [2]”, > 50 µM; in [3], 2.05 µM. Besides, in test [1], the inhibition was determined as 70%.
In the case of `O=C(CCCCCNC(=O)Cn1cnc2c(N3CCOCC3)nc(Nc3ccccc3)nc21)NO`, the IC50 in the test with U-937 was 6.5 µM; in the test with PC-3, 6.44 µM; in the test on MDA-MB-231, 1.56 µM; in test [4], 0.0026 µM; at Histone deacetylase 8, 0.15 µM; in the test with MCF7 it was 18.6 µM. Further, the IC50 worked out at 46.1 µM with A549; 5.37 µM in “cells [2]”; 28 µM in the test “cells [5]”; 0.075 µM in test [3]; 18.2 µM in the test with HeLa; 0.035 µM on Histone deacetylase 1. The inhibition in test [1] turned out to be 98%.
Consider `O=C(CCNC(=O)Cn1cnc2c(NCc3ccccc3)ncnc21)NO`, for which, in test [1], the inhibition worked out at 13%.
On the same count and under the same terms, next, `Nc1nc(N2CCOCC2)c2ncn(CC(=O)Nc3ccc(CC(=O)NO)cc3)c2n1`: 0%; `CNc1ncnc2c1ncn2CC(=O)NCCC(=O)NO`: 10%; `CNc1ncnc2c1ncn2CC(=O)NCC(=O)NO`: 3%.
As to `O=C(Cc1ccc(NC(=O)Cn2cnc3c(N4CCOCC4)ncnc32)cc1)NO`, in test [1], the inhibition stood at 25%.
On to `O=C(CCCCNC(=O)Cn1cnc2c(Nc3ccccc3)nc(Nc3ccccc3)nc21)NO`, for which the concentration for half-maximal inhibition (IC50) in the test with MDA-MB-231 was 11.1 µM; with MCF7, > 50 µM; in “cells [2]”, 34.7 µM; in test [3] it was 0.59 µM. For the same compound, in test [1], the inhibition was 87%.
Regarding `O=C(CCCCCNC(=O)Cn1cnc2c(Nc3ccccc3)nc(Nc3ccccc3)nc21)NO`, the half-maximal inhibitory concentration (IC50) in the test on U-937 was 4.07 µM; in the test on PC-3, 2.14 µM; in the test with MDA-MB-231 it was 1.61 µM; in [4], 0.0038 µM; at Histone deacetylase 8, 0.2 µM; in the test with MCF7, 9.58 µM. In addition, the half-maximal inhibitory concentration (IC50) in the test with A549 was determined as 18 µM; in “cells [2]”, 3.8 µM; in “cells [5]”, 13.4 µM; in [3], 0.3 µM; in the test on HeLa, 9.08 µM; at Histone deacetylase 1, 0.028 µM. In test [1], the inhibition is 80%.
As to `Nc1nc(N2CCOCC2)c2ncn(CC(=O)NCCCCCC(=O)NO)c2n1`, the values for the 50% inhibitory concentration (IC50) (in the test on MDA-MB-231; with MCF7; in test [3]) were 41.3 µM, > 50 µM and 4.53 µM, respectively. Moreover, the inhibition in test [1] was 53%.
For `O=C(CCCNC(=O)Cn1cnc2c(N3CCOCC3)ncnc21)NO`, the inhibition in test [1] was 15%.
Consider `O=C(CNC(=O)Cn1cnc2c(NCc3ccccc3)ncnc21)NO`, for which the inhibition in test [1] amounted to 3%.
Turning to `O=C(CCCCCNC(=O)Cn1cnc2c(N3CCOCC3)ncnc21)NO`, the inhibition in test [1] was 49%. Besides, the IC50 in [3] is > 5 µM.
Take `Nc1nc(N2CCOCC2)c2ncn(CC(=O)NCCC(=O)NO)c2n1`: the inhibition in test [1] was 20%.
`O=C(CCNC(=O)Cn1cnc2c(N3CCOCC3)nc(Nc3ccccc3)nc21)NO`: the inhibition in [1] stood at 56%. The IC50 in test [3] was > 5 µM.
On to `O=C(CCCCCNC(=O)Cn1cnc2c(Nc3ccccc3)ncnc21)NO`, for which the IC50 in the test on MDA-MB-231 was 22.3 µM; in the test on MCF7, > 50 µM; in the test “cells [2]” it was > 50 µM; in test [3] it was 2.09 µM. Also, the inhibition in [1] was 72%.
With `O=C(CCCNC(=O)Cn1cnc2c(N3CCOCC3)nc(Nc3ccccc3)nc21)NO`, in [1], the inhibition was 69%. The IC50 in [3] is > 5 µM.
Consider `Nc1nc(N2CCOCC2)c2ncn(CC(=O)NCCCC(=O)NO)c2n1`, for which, in test [1], the inhibition was -1%.
Turning to `O=C(CCCCCCNC(=O)Cn1cnc2c(Nc3ccccc3)nc(Nc3ccccc3)nc21)NO`, the half-inhibitory concentration (IC50) amounted to 3.91 µM in the test with U-937; 4.26 µM in the test with PC-3; 1.55 µM in the test on MDA-MB-231; 0.0018 µM in [4]; 0.32 µM on Histone deacetylase 8; 9.04 µM with MCF7. Besides, the half-maximal inhibitory concentration (IC50) with A549 stood at 10.1 µM; in “cells [2]”, 2.88 µM; in “cells [5]”, 8.95 µM; in test [3], 0.51 µM; with HeLa, 8.76 µM; on Histone deacetylase 1, 0.063 µM. The inhibition in test [1] came to 95%.
